# Measurements: patent US20140356293A1, “FLUORESCENT COMPOSITIONS WITH ENHANCED FLUORESCENCE AND METHODS BASED THEREON” (The Research Foundation of the State University o New York, priority 2012, published 2014)
# “And” between values parts separate entries of the source, which are not always exact repeats. Equal values may be shown once. Read-outs that look alike come from different tables or passages of the source.
# Experiments:
# [1] = Relative fluorescence intensity of ICG formulations in Petri dishes, NIRF imaging system; format: physicochemical; settings: for maximum fluorescent intensity: 5 μg/ml ICG
# Experimental: Real-time near-infrared fluorescent (NIRF) imaging was accomplished using a NIRF imaging system. The ring light was coupled to a tungsten halogen source filtered with a Chroma excitation filter (775 nm). The Navitar Zoom 7000 lens was fitted with a Chroma emission filter (845 nm). Images were captured with a Qimaging Retiga camera. Petri dishes (35 mm diameter) were positioned in the imaging system that contained 2 ml of a sample of an enhanced fluorescent composition comprising ICG. This system was used in the investigations of ICG fluorescence enhancement described in this example. Excitation light was delivered to the field of interest using a fiber optic ring light coupled to a tungsten halogen source (Illumination Technologies, Inc. IT 9596-ER) filtered with a 775 nm bandpass filter (Chroma Technologies). A Navitar Zoom 7000 Lens was fitted on a Qimaging Retiga EXi cooled CCD camera.
# Indocyanine Green (ICG) stock solutions were prepared by adding 10 ml of diluent to a 25 mg vial of IC Green (Akorn Incorporated). Diluents were water (supplied by the manufacturer), ethanol, or dimethyl sulfoxide (DMSO).
# Milk solutions were prepared by dissolving Instant Nonfat Dry Milk (Nestle Carnation) in water at various concentrations up to 30% weight to volume
# To prepare ICG-based enhanced fluorescent compositions, ICG stock solutions were added to achieve concentrations up to 250 μg/ml. Relative fluorescence intensity of various formulations was measured in 35 mm circular Petri dishes containing 2 ml. A floating toothpick provided a focusing target.
# Intralipid formulations were prepared from Intralipid 20% (Fresenius Kabi), which is a sterile non-pyrogenic fat emulsion prepared for intravenous administration for parenteral nutrition. Intralipid is also a vehicle for intravenous (i.v.) delivery of propofol, and is used as an antidote for acute local anesthetic toxicity. It is a white opaque liquid containing 20% soy bean oil, egg phospholipids, glycerin, and water. ICG stock solutions were added to achieve a range of concentrations of ICG up to 250 μg/ml in the enhanced fluorescent composition.
# Stock aqueous ICG solution was diluted into 10, 20, and 30% milk to achieve 1, 5, 10, and 20 μg/ml final concentrations. Fluorescent images of 2 ml of each preparation in 35 mm Petri dishes were acquired using QCapture and quantified using ImageJ.
# […] […] The ICG in DMSO (“ICG/DMSO”) stock solution was diluted into Enfamil and fluorescence intensity measured.
# Intralipid is milk-like in its appearance and the major ingredient is 20% soy bean oil. Because Intralipid is approved for human intravenous use, a series of diluted solutions was prepared from the ICG/DMSO stock solution.
# In the work summarized in FIG. 9, solutions of ICG were prepared in DMSO, water, or ethanol at 2.5 mg/ml and then diluted to the indicated concentrations across the top of the figure in the diluents listed down the left side. The DMSO and ethanol diluents were diluted with water. Two ml of each solution was transferred to a Petri dish and imaged as described herein in an NIRF imaging system. […] Also imaged were the same ICG concentrations in 5% ethanol and water. […] The use of ethanol and DMSO in pharmaceuticals is limited by the toxicity of these compounds.
# [2] = Stability of ICG fluorescence (storage of stock solutions; constant illumination); format: physicochemical
# Experimental: A vial of ICG containing 2.5 mg of ICG was dissolved into 10 ml of DMSO. […] Aqueous solutions fade rapidly. The ICG in DMSO (“ICG/DMSO”) stock solution was diluted into Enfamil and fluorescence intensity measured. […] The DMSO concentration at the peak fluorescence was 0.3%. Thus enhancement of fluorescence intensity was similar to that observed with use of reconstituted nonfat dry milk.
# With respect to FIG. 12, a solution of ICG in Enfamil (8 μg/ml) in a Petri dish was positioned in the imaging system. With constant illumination the fluorescence image was captured every 10 seconds for 22 minutes.
# [3] = Aqueous ICG preparation used to image the urinary tract of rats; format: physicochemical; settings: aqueous solution 2.5 mg/ml diluted
# Experimental: ICG used to image the urinary tract of rats was prepared according to package insert instructions (aqueous solution 2.5 mg/ml) and diluted to 10 μg/ml to achieve peak fluorescence. It was observed that the fluorescence of these preparations was not as intense as that achieved when ICG was injected intravenously and diluted into the blood.
# [4] = cited from earlier work
# [5] = in vivo; cited from earlier work
smiles,measurement,setting,value
"CC1(C)C(/C=C/C=C/C=C/C=C2\N(CCCCS(=O)(=O)O)c3ccc4ccccc4c3C2(C)C)=[N+](CCCCS(=O)(=O)[O-])c2ccc3ccccc3c21 [ICG, Indocyanine green]",maximum fluorescent intensity,"[1]; 10% milk, arbitrary units of integrated density",about 950000 IntDen
same,maximum fluorescent intensity,[1]; 20% milk,about 1000000 IntDen
same,maximum fluorescent intensity,[1]; 30% milk,about 1150000 IntDen
same,Dependence of fluorescence on milk concentration,"[1]; 10, 20, 30% milk",increased with milk concentration
same,Fluorescence intensity versus ICG concentration,"[1]; 25% DMSO in water, FIG. 9",increased from 1 to 100 μg/ml
same,ICG concentration at which imaging system was fully saturated,"[1]; 100% DMSO, FIG. 9",12.5 µg/mL
same,Fluorescence intensity versus ICG concentration,"[1]; 100% ethanol, FIG. 9",lower than in DMSO but increased up to 100 μg/ml
same,ICG concentration at peak fluorescence,"[1]; ICG in DMSO diluted into Enfamil, Example 2, FIG. 10",around 8 μg/ml
same,ICG concentration at peak fluorescence,"[1]; ICG in DMSO diluted into Intralipid, exposure time reduced from 90 to 70 ms, Example 2, FIG. 10",8 µg/mL
same,ICG concentration at peak fluorescence,"[1]; ICG/DMSO stock (2.5 mg/ml) diluted into Enfamil, final DMSO 0.3%, Example 1, FIG. 5",7.8 µg/mL
same,ICG concentration at peak fluorescence,"[1]; aqueous ICG stock diluted into 10, 20 and 30% reconstituted nonfat dry milk, 1, 5, 10, 20 μg/ml tested",5 µg/mL
same,ICG concentration at which quenching occurred,"[1]; in 10, 20 and 30% reconstituted dry milk",≥ 10 µg/mL
same,ICG concentration at which fluorescence decreased (quenched),"[1]; in Enfamil, FIG. 9",50 µg/mL and 100 µg/mL
same,Fluorescence of ICG diluted into water or saline,[1]; same imaging conditions as milk preparations,no detectable fluorescence
same,Persistence of fluorescence of aqueous solutions,[2],fade rapidly
same,ICG concentration to achieve peak fluorescence,[3],10 µg/mL
same,Maximum fluorescence wavelength,[4]; in blood,approximately 830 nm
same,maximum absorption,[4]; in plasma at low concentrations,~800 nm
same,Maximum fluorescence wavelength,[4]; in water,approximately 810 nm
same,Route of excretion,[5],excreted exclusively in the bile
